Test results from patent US20260273047A1, “COMPOSITIONS AND METHODS FOR AMELIORATING ADVERSE EFFECTS OF THERAPIES” (MDX Management LLC, priority 2023, published 2026).
“Also recorded” adds a separate entry of the source.

Key:
[1] = tested on: malignant melanoma and advanced malignancies; conditions: cited from earlier work
MC38 = MC38 tumors treated intratumorally with TPI-1 and T cell activating agents; type: in vivo, C57Bl/6 mice
Procedure: Inhibition of SHP-1 was tested in vivo for tumor therapies. […] Tumor growth was measured over time until the tumors reached 2.0 cm in diameters. […] Anti-PD-1 antibody was 205[…] 50 μg by intratumoral injection every 3 days. Anti-CD3 antibody and anti-CD28 antibody were each 205[…] 50 μg by intratumoral injection in a single dose.

4T1 breast cancer = type: in vivo; conditions: lotion twice a day; anti-PD-1 100 μg i.p. every three days; all groups prophylactic anti-TNFα mAb
Procedure: Efficacy of topical treatments against tumor growth and/or progression was tested using murine models of cutaneous/subcutaneous breast cancer. […] Palpable tumors were formed in 10-15 days and were traced by bioluminescence imaging. Tumor sizes were measured manually, and the volume was calculated by the equation=[length (mm)×width (mm)×width (mm)]/2. Once the total tumor volume reached ≥200 mm^3, treatments were started.
Treatment groups included: (i) Control treatment (ctl.), wherein mice received topical non-drug lotion (vehicle) only; (ii) αPD-1 treatment, wherein mice received topical non-drug lotion (vehicle) treatment along with 100 μg of anti-PD-1 monoclonal antibody once every three days through intraperitoneal injection; (iii) Topical treatment with TLR agonists only (i.e. Condition A), wherein mice received aTLR (Resiquimod (R848) and polyI:C) prepared in Johnson's lotion, each at 100 μg/ml in a final volume of 100-200 μL lotion: (iv) Topical treatment with SHP-1 inhibitors only (i.e. Condition B), wherein mice received deuterated TPI-1 (dTPI-1) at 100 μg/ml in a final volume of 100-200 μL lotion; (v) Topical treatment with Conditions A+B only in a final volume of 100-200 μL lotion; and (vi) Topical treatment with Conditions A+B in a final volume of 100-200 μL lotion and systemic αPD-1 treatment. […]

O.O.O.O.O.O.O.O.O.O=C([O-])[C@@H]1[O][Sb]2([O-])([O][Sb]34([OH])[O][C@H]([C@H](O)CO)[C@H]([O]3)[C@H](C(=O)[O-])[O]4)[O][C@H]([C@H](O)CO)[C@@H]1[O]2.[Na+].[Na+].[Na+] [SSG, sodium stibogluconate]
most common toxic side-effects, frequency ([1]; thrombocytopenia, elevated serum lipase, fatigue, fever, chills, anemia, hypokalemia, pancreatitis, skin rash): up to 68 % of patients
effect against tumor development ([1]; with interferons, followed or not by chemotherapy): no effect was seen against tumor development

O=C1C=CC(=O)C(c2cc(Cl)ccc2Cl)=C1 [TPI-1, 2-(2,5-dichlorophenyl)benzoquinone]
effect of adding TPI-1 to αPD-1, IL-2, anti-CD3/CD28 or αPD-1+IL-2 (MC38; TPI-1 1 mg/kg every 2 days, 1 mg/kg): enabled the intratumoral injection of αPD-1, IL-2, or anti-CD3/CD28 to achieve strong anti-tumor effects; also recorded: instantly overcame treatment resistance
effect on established tumors, such as MC38, KPC, or LLC (MC38; agent alone): only minor effects
MC38 tumor growth / resistance (MC38; intratumoral, agent without SHP-1 inhibitor, or TPI-1 alone (1 mg/kg every 2 days)): did not attenuate tumor growth; also recorded: did not stop tumor progression

[2H]C1=C([2H])C(=O)C(c2c([2H])c(Cl)c([2H])c([2H])c2Cl)=C([2H])C1=O [dTPI-1]
4T1 tumor growth / progression (4T1 breast cancer): only slightly delayed tumor progression
